Test: Plasma profile of CBD after topical application in rats
Format: in vivo, Sprague Dawley Rats
Experimental: 12 Female Sprague Dawley Rats (150-200 g) were purchased from Charles River Laboratories (Wilmington, MA). Rats were allowed to acclimatise for one week prior to commencement of the study.
At day 0, rats were anaesthetised using 3% isoflurane via inhalation. The skin on the dorsal side of the rats was shaved and a circular area of approximately 18.09 cm^2 was marked onto the surface of the skin. Twice daily, cream was applied to the dorsal surface of the skin using a 1 ml syringe that was prefilled with the composition described in Example 1 at a dose of 15 mg/kg of cannabidiol (CBD). Following the application of the cream and in order to prevent the cream from being removed, dermal application jackets were applied to each of the rats. These were maintained on the animals for the duration of the study (i.e. 7 days). Every 24 hours, blood was collected by puncturing the saphenous vein with a 20 G needle. At each time point, approximately 200 μL of blood was collected into Microvette™ 200 ZGel collection tubes (Sarstedt). Blood samples were centrifuged at 1.5×104 RPM for 5 mins. Following this, plasma was isolated and stored at −80° C. until the end of the study when all samples were analysed simultaneously. […]
Plasma (20 μL) was added to a 1:1 (v/v) solution of acetonitrile:ethyl acetate at a ratio of 1:10 (plasma:organic solvent). […] The samples were reconstituted with LC-MS grade methanol prior to analysed by mass spectrometry.
LC analyses were performed on an Agilent 1260 LC infinity system consisting of a binary pump, a thermostated autosampler and a thermostated column compartment (Agilent, Waldbronn, Germany). Samples were analyzed on an Agilent Poroshell 120 C18 column (150×2.1 mm; 1.9 μm particle size) (Agilent, Waldbronn, Germany). […]
Tandem mass spectrometry was performed using a TSQ Endura™ Triple Quadrupole Mass Spectrometer (Thermo Fisher Scientific, Waltham, MA) operating in electrospray ionization (ESI). Xcalibur software (Thermo Fisher Scientific) was used for instrument control, data acquisition, qualitative and quantitative data analyses. […]

In the case of C=C(C)[C@@H]1CCC(C)=C[C@H]1c1c(O)cc(CCCCC)cc1O [CBD, cannabidiol], the “Time of peak plasma concentration” value (topical composition of Example 1, 15 mg/kg CBD twice daily for 7 days, female rats) is reported as 96 h, the “Peak plasma concentration of CBD” value (topical composition of Example 1, 15 mg/kg CBD twice daily for 7 days, female rats, n=12) is reported as 21.08 ± 3.54 ng/mL and the “Plasma concentration of CBD by 168 h” value (topical composition of Example 1, 15 mg/kg twice daily, LOQ of LC-MS method 5 ng/ml) is reported as “below the LOQ”.

Reference: patent US20240299422A1, “Topical Cannabinoid Compositions and Methods for Treating Skin Diseases” (Avicanna Inc., priority 2021, published 2024)
